The record followed here is patent US20060039955A1, “Animal feed compositions with enhanced histidine content” (Cargill, Incorporated, priority 2004, published 2006).

A short description of data set [1]: Poultry digestibility trial (intestinal digestibility of His and Lys sources). The data set is classed as in vivo. The protocol:
This trial tested four different sources of AA for their intestinal digestibility. Crystalline His and Lys were coated with partially hydrogenated vegetable oil to test their digestibility as compared to His(HCl) and Lys(HCl), respectively. His(HCl) contains 74.3 wt. % His, whereas, the coated product contains 40 wt. % His. Lys(HCl) contains 78.8 wt. % Lys, whereas, the coated product contains 45 wt. % Lys. For this trial the test articles were added at low levels. The control diet was used as a blank to measure endogenous losses and to calculate the digestibility of His and Lys. The control diet was spiked with His or Lys by using either His(HCl) or Lys(HCl), respectively, (0.50% inclusion rate). This provided His and Lys at 0.372% and 0.394%, respectively. The coated His and Lys products were added to provide the same level of His or Lys as provided by the His(HCl) or Lys(HCl), respectively. The digestibility of His and Lys in the casein was determined and this effect was assessed in calculating the digestibility of the coated His and coated Lys. All test diets contained the same amount of casein (the only other source of His and Lys) as the control diet.

On the set-up of data set [2]: species or system cows. The following applies: cow, in vivo. The protocol:
Free Amino Acid degradation in vivo was determined using a technique that used cobalt (CoII) as a ruminal flow marker to follow the flow of Maillard-protected histidine (which had been reacted with lactose) out of the rumen. Maillard-protected histidine loss was evaluated relative to CoII outflow in fistulated cows. Free histidine or histidine modified by the Maillard Reaction Protocol were introduced into fistulated cows together with Cobalt II. After introducing the histidine or modified histidine into the cows, samples of rumen fluid periodically were withdrawn and the amount of histidine was determined using an O-phthaldialdehyde assay as described by Roth (1971), Anal. Chem. 43:880. The amount of CoII was determined using inductively coupled plasma emission spectroscopy. The amount of histidine related to CoII was plotted versus time to calculate a degradation coefficient (Kd) for free and protected histidine.

`Cl.N[C@@H](Cc1c[nH]cn1)C(=O)O` [Histidine HCl]: the “App. His Dig.” value in data set [1] (apparent histidine digestibility, His at 0.372% of diet) turned out to be 99.3. Besides, the “True His. Dig.” value in data set [1] (true histidine digestibility, His at 0.372% of diet) is recorded as 100.2.
`Cl.NCCCC[C@H](N)C(=O)O` [Lysine HCL]: the “App. Lys. Dig.” value in data set [1] (apparent lysine digestibility, Lys at 0.394% of diet) is on record as 97.3. In data set [1] (true lysine digestibility, Lys at 0.394% of diet), the “True Lys Dig.” value is 99.6.
As to `N[C@@H](Cc1c[nH]cn1)C(=O)O` [free histidine, histidine], the “degradation coefficient (Kd)” value in data set [2] lay in the range of 0.000208 to 0.000264 s⁻¹.
